The target of assay [1] is T1, MMP-14 (Homo sapiens, UniProt P50281).
T1 construct: The catalytic domain enzyme was expressed in E. coli inclusion bodies, solubilized in urea; made in house
Nature of the assay: In vitro MMP inhibition, Ki determination (fluorogenic substrate II). The assay is classed as biochemical. The note with it: value not in parenthesis; read-out: MMP-14 Ki. In a few lines: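 E. coli-expressed, refolded MMP-14 catalytic domain, activated with APMA or trypsin, in 100 mM Tris-HCl pH 7.5, 100 mM NaCl, 10 mM CaCl2, 0.05% Brij-type detergent. Apparent Ki by Morrison-equation regression of velocity vs inhibitor and enzyme concentration.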

The target of assay [2] is T2, MMP-13 (Homo sapiens, UniProt P45452).
T2 construct: made in house; host or cells: baculovirus / insect cells
The assay is described as above. In kind it is biochemical. The conditions noted are these: value not in parenthesis; read-out: MMP-13 Ki. The essentials:
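Ki determined with human recombinant MMP-13, baculovirus-expressed as proenzyme and activated with APMA. Fluorogenic MCA/Dpa substrate II at 4 μM (at or below Km) with low enzyme in Tris buffer pH 7.5 with CaCl2. Incubation was 1 h at room temperature, with fluorescence read at 330/420 nm.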

A word on the Ki: it is the equilibrium dissociation constant of an inhibitor or competing ligand from its target.

Take `CCCCOc1ccc(N2CCN(S(=O)(=O)C3(C(=O)NO)CCSCC3)CC2)cc1` [Example 232]: the Ki in assay [1] amounted to 3510 nM; in assay [2] it was 0.56 nM.

As for `CC(C)Cc1ccc(N2CCN(S(=O)(=O)C3(C(=O)NO)CCOCC3)CC2)c(F)c1` [Example 213], the figures for the Ki in assay [1] and in assay [2] were 4280 nM and 16.1 nM, respectively.

In the case of `CCCCOc1ccc(N2CCN(S(=O)(=O)C3(C(=O)NO)CCN(c4ccsc4)CC3)CC2)cc1` [Example 223], the inhibitory constant (Ki) in assay [1] was found to be 7100 nM; in assay [2], 1.4 nM.

`CCCC(C)Cc1ccc(N2CCN(S(=O)(=O)C3(C(=O)NO)CCN(CCOC)CC3)CC2)cc1` (centres unmarked) [Example 189]: the Ki in assay [1] was over 10000 nM; in assay [2] it was 2.06 nM.

Regarding `CCCCOc1ccc(N2CCN(S(=O)(=O)C3(C(=O)NO)CCN(C(=O)N(CC)CC)CC3)CC2)cc1` [Example 242], the Ki in assay [1] is 2390 nM; in assay [2], 0.331 nM.

Turning to `CCCCCc1ccc(N2CCN(S(=O)(=O)C3(C(=O)NO)CCN(S(C)(=O)=O)CC3)CC2)cc1` [Example 237], the Ki in assay [1] was 7120 nM; in assay [2], 1.69 nM.

As to `CCCCCc1ccc(N2CCN(S(=O)(=O)C3(C(=O)NO)CCN(S(=O)(=O)N(C)C)CC3)CC2)cc1` [Example 236], the inhibition constant (Ki) in assay [1] was over 10000 nM; in assay [2], 1.47 nM.

Consider `CCc1ccc(N2CCN(S(=O)(=O)C3(C(=O)NO)CCN(CCOC)CC3)CC2)cc1` [Example 193], for which the Ki is 403 nM in assay [1] and 1.77 nM in assay [2].

In the case of `COc1ccc(-c2ccc(N3CCN(S(=O)(=O)C4(C(=O)NO)CCOCC4)CC3)nc2)cc1` [Example 61], the Ki stood at 199 nM in assay [1] and 0.16 nM in assay [2].

For `O=C(NO)C1(S(=O)(=O)N2CCN(c3ccc(-c4ccc(F)cc4)cc3)CC2)CCOCC1` [Example 208], the Ki in assay [1] was 621 nM; in assay [2], 0.36 nM.

For `CCCCOc1ccc(N2CCN(S(=O)(=O)C3(C(=O)NO)CCS(=O)(=O)CC3)CC2)cc1` [Example 222], the values for the Ki in assay [1] and in assay [2] were over 10000 nM and 3.99 nM, respectively.

In the case of `CCOCCSc1ccc(N2CCN(S(=O)(=O)C3(C(=O)NO)CCOCC3)CC2)cc1` [Example 234], the Ki amounted to 2880 nM in assay [1] and 1.61 nM in assay [2].

As to `O=C(NO)C1(S(=O)(=O)N2CCN(c3nncs3)CC2)CCOCC1` [Example 215], the Ki in assay [1] is over 10000 nM; in assay [2] it was 1890 nM.

Take `O=C(NO)C1(S(=O)(=O)N2CCN(c3cnc(CCC(F)(F)C(F)(F)F)cn3)CC2)CCOCC1` [Example 210]: the Ki was 4470 nM in assay [1] and 0.69 nM in assay [2].

On to `CCCCC(=O)c1ccc(N2CCN(S(=O)(=O)C3(C(=O)NO)CCN(CCOC)CC3)CC2)cc1` [Example 177], for which the values for the Ki in assay [1] and in assay [2] were over 10000 nM and 0.847 nM, respectively.

`CCCNC(=O)c1ccc(N2CCN(S(=O)(=O)C3(C(=O)NO)CCN(CCOC)CC3)CC2)cc1` [Example 175]: the inhibition constant Ki was over 10000 nM in assay [1] and 8.25 nM in assay [2].

In the case of `CCCc1ccc(N2CCN(S(=O)(=O)C3(C(=O)NO)CCN(c4ccc(C)cc4)CC3)CC2)cc1` [Example 171], the values for the Ki in assay [1] and in assay [2] were 4110 nM and 21.5 nM, respectively.

Consider `O=C(NO)C1(S(=O)(=O)N2CCN(c3ccc(OC(F)(F)C(F)F)cc3)CC2)CCSCC1` [Example 62], for which the inhibitory constant (Ki) was 1150 nM in assay [1] and 0.5 nM in assay [2].

As for `CCCCOc1ccc(N2CCN(S(=O)(=O)C3(C(=O)NO)CCN(C(=O)NC(C)(C)C)CC3)CC2)cc1` [Example 240], the Ki was found to be 3960 nM in assay [1] and 0.327 nM in assay [2].

As for `CCCCCc1ccc(N2CCN(S(=O)(=O)C3(C(=O)NO)CCN(S(N)(=O)=O)CC3)CC2)cc1` [Example 205], the Ki in assay [1] amounted to 5020 nM; in assay [2], 2.4 nM.

For the molecule `CCCCOc1ccc(N2CCN(S(=O)(=O)C3(C(=O)NO)CCN(CCN4CCOCC4)CC3)CC2)cc1` [Example 233], the values for the Ki in assay [1] and in assay [2] were 3080 nM and 0.26 nM, respectively.

Consider `COCCN1CCC(C(=O)NO)(S(=O)(=O)N2CCN(c3ccc(OC(F)(F)F)cc3)CC2)CC1` [Example 202], for which the Ki in assay [1] is 623 nM; in assay [2], 0.967 nM.

For the molecule `O=C(NO)C1(S(=O)(=O)N2CCN(c3ccc(OCC(F)(F)C(F)(F)F)cc3)CC2)CCOCC1` [Example 212], the Ki in assay [1] was 5630 nM; in assay [2], 0.3 nM.

On to `CCCCOc1c(F)cc(N2CCN(S(=O)(=O)C3(C(=O)NO)CCN(CCOC)CC3)CC2)cc1F` [Example 165], for which the Ki in assay [1] turned out to be 3650 nM; in assay [2], 1.03 nM.

As for `O=C(NO)C1(S(=O)(=O)N2CCN(c3cnc(CCCC(F)(F)F)cn3)CC2)CCOCC1` [Example 209], the figures for the Ki in assay [1] and in assay [2] were over 10000 nM and 3.32 nM, respectively.

In the case of `CCCCOc1ccc(N2CCN(S(=O)(=O)C3(C(=O)NO)CCN(CCN(CC)CC)CC3)CC2)cc1` [Example 235], the inhibition constant Ki in assay [1] was 3960 nM; in assay [2], 0.3 nM.

`CCCCOc1ccc(N2CCN(S(=O)(=O)C3(C(=O)NO)CCN(c4ccc(OC)c(OC)c4)CC3)CC2)cc1` [Example 229]: the results for the Ki in assay [1] and in assay [2] were 7880 nM and 1.01 nM, respectively.

As to `O=C(NO)C1(S(=O)(=O)N2CCN(c3ccc(Cl)nn3)CC2)CCOCC1` [Example 198], the figures for the Ki in assay [1] and in assay [2] were 1280 nM and 59.9 nM, respectively.

For `CCCCOc1ccc(N2CCN(S(=O)(=O)C3(C(=O)NO)CCN(CCCC(F)(F)F)CC3)CC2)cc1` [Example 238], the values for the Ki in assay [1] and in assay [2] were 6040 nM and 0.53 nM, respectively.

Regarding `CCCCOc1ccc(N2CCN(S(=O)(=O)C3(C(=O)NO)CCN(c4ncccn4)CC3)CC2)cc1` [Example 159], the Ki in assay [1] was 2060 nM; in assay [2], 0.587 nM.

For `CCCCc1ccc(N2CCN(S(=O)(=O)C3(C(=O)NO)CCN(CCOC)CC3)CC2)cc1F` [Example 173], the Ki in assay [1] amounted to 1860 nM; in assay [2], 0.696 nM.

In the case of `COCCN1CCC(C(=O)NO)(S(=O)(=O)N2CCN(c3ccc(CCCCC(C)C)cc3)CC2)CC1` [Example 191], the figures for the inhibition constant (Ki) in assay [1] and in assay [2] were 6690 nM and 0.578 nM, respectively.

Regarding `O=C(NO)C1(S(=O)(=O)N2CCN(c3cnc(CCC(F)(F)F)cn3)CC2)CCOCC1` [Example 218], the Ki stood at 4570 nM in assay [1] and 2.03 nM in assay [2].

On to `CCCCOc1ccc(N2CCN(S(=O)(=O)C3(C(=O)NO)CCN(c4nccs4)CC3)CC2)cc1` [Example 157], for which the results for the Ki in assay [1] and in assay [2] were 2760 nM and 1.02 nM, respectively.

`CCCCOc1ccc(N2CCN(S(=O)(=O)C3(C(=O)NO)CCN(C(=O)N4CCCCC4)CC3)CC2)cc1` [Example 243]: the figures for the Ki in assay [1] and in assay [2] were 2050 nM and 0.24 nM, respectively.

As to `O=C(NO)C1(S(=O)(=O)N2CCN(c3ccc(COCC(F)(F)C(F)(F)F)cc3)CC2)CCOCC1` [Example 70], the Ki in assay [1] was over 10000 nM; in assay [2] it was 0.61 nM.

`CCCCOc1ccc(N2CCN(S(=O)(=O)C3(C(=O)NO)CCN(c4ccc(OC)cc4)CC3)CC2)cc1` [Example 249]: the Ki in assay [1] was over 10000 nM; in assay [2] it was 2.46 nM.

On to `COCCN1CCC(C(=O)NO)(S(=O)(=O)N2CCN(c3ccccn3)CC2)CC1` [Example 176], for which the figures for the Ki in assay [1] and in assay [2] were 181 nM and 1.73 nM, respectively.

`CCCCCCc1ccc(N2CCN(S(=O)(=O)C3(C(=O)NO)CCN(CCOC)CC3)CC2)cc1` [Example 199]: the Ki in assay [1] was 4620 nM; in assay [2], 0.397 nM.

On to `CCCCOc1ccc(N2CCN(S(=O)(=O)C3(C(=O)NO)CCN(c4ccc(OC(F)(F)C(F)F)cc4)CC3)CC2)cc1` [Example 65], for which the Ki in assay [1] is over 10000 nM; in assay [2], 32.7 nM.

These data come from patent US20050209278A1, “Piperidinyl- and piperazinyl-sulfonylmethyl hydroxamic acids and their use as protease inhibitors” (priority 2002, published 2005).
